Entries after “also recorded” stand apart in the source; their conditions may differ.
Assays:
PrP^C [1] = conditions: cited from earlier work
Aß42 [2] = test: Thioflavin-T polymerization of Aß42; assay type: biochemical
[3] = Electron microscopy length of Aß assemblies; assay type: physicochemical; conditions: for length (mean ± sd): electron microscopy; for filament length, overall: human AD brain
[4] = tested on: human iPSC-derived cortical excitatory neurons; test: Synapse loss in human iPSC-derived cortical neurons; assay type: cell-based; conditions: 7 days
Description: Human neurons derived from induced pluripotent stem cells (iPSCs) with Neurogenin2 (Ngn2) stably integrated under doxycycline control were prepared and cultured as described. Poly-D-Lysine-coated 384 well plates (Corning # 354663) were seeded with 2,000 cells in 50 μl of Classic Neuronal Media (CNR: 50% DMEM/F12 (Gibco), 50% Neurobasal-A (Gibco), 0.5X Glutamax (Gibco), 1X MEM Non-Essential Amino Acids Solution (Gibco), 0.5X B27 supplement (Gibco), 0.5X N-2 supplement (Gibco), 10 ng/ml BDNF (PeproTech), 10 ng/ml NT-3 (PeproTech), 1 μg/ml mouse Laminin (Gibco)) containing 2 μg/ml doxycycline hydrochloride (Sigma). On DIV 7 and 14, 50 μl of CNR without doxycycline hydrochloride was added to each well. Every week after that, 30 μl of media was removed from each well and replaced with 30 μL of fresh media. Cells were grown for at least 60 days before treatment with receptor-bound Aßo. […]
Image analysis was performed using ImageXpress built in analysis software, MetaXpress. […] To measure synapsin1/2 density on MAP2, the number of synaptic puncta overlapping with the MAP2 mask were counted and then divided by the area of the MAP2 mask. To measure Synapsin1/2 colocalized with homer1b/c density on MAP2, first, only the round objects of Synapsin1/2 and Homer1b/c colocalized with each other that also overlap with MAP2 were counted and divided by the MAP2 area. […]

Aß = assay type: biochemical, mouse
PrP^C [5] = tested on: PrP^C
[6] = Size exclusion chromatography with PLISA readout; assay type: physicochemical; conditions: Superdex 200, purified Aß spiked in control brain TBS lysate, PLISA of fractions
[7] = Monomer count from cryo-EM rung spacing and length; assay type: physicochemical; conditions: 4.75 Å rung spacing, 65 nm length, two monomers per rung
Description: Data sets were processed using standard amyloid helical reconstruction procedures implemented in RELION 4.0 [49]. Dose-fractionated micrograph movies were corrected for beam-induced motion using the RELION’s own implementation of motion correction. Contrast transfer function (CTF) parameters were estimated from the motion-corrected micrographs using CTFFIND-4.1 [51]. The start-end coordinates of the Aß filaments were manually marked in the aligned micrographs using RELION 4.0. Segments were extracted with an inter-box distance of 12-Å, a helical rise of 4.75 Å and using a box size of 200 pixels with 1.068 Å per pixel. Extracted segments were subjected to several rounds of reference free two-dimensional (2D) classification to remove suboptimal segments and to select for segments showing detailed features along the filament axis. A three-dimensional (3D) cylinder was generated using the “relion_helix_toolbox” utility and used as reference for an initial 3D classification of the helical segments retained after the 2D classification steps. The initial 3D classification performed on the set of optimal 2D-segments assumed a helical rise of 4.75 Å and a value of the helical twist as estimated from the crossover distances in the 2D class averages. […]

PrP^C [8] = tested on: PrP^C; remark: listed apart in the source
Aß42 [9] = test: Filament length at end of polymerization reactions (negative stain EM)
anti-Aß antibodies = test: Immunoblot epitope profiling, receptor-bound vs sarkosyl-insoluble Aß; assay type: binding; conditions: n=4 AD brains; for amino-terminal epitope immunoreactivity, receptor-bound vs sarkosyl-insoluble: normalized to mid-region antibody 4G8, HFIP-monomerized
Description: The tubes were then opened and kept in the fume hood overnight at room temperature to evaporate the HFIP. The remaining protein films were resuspended in 1X Laemmli buffer supplemented with 8 M urea. The resulting samples were separated on 4-20% gradient Criterion Tris-Glycine gels (BioRad), transferred onto the nitrocellulose membranes, blocked with Rockland fluorescent Western Blot blocking buffer and immunoprobed with the appropriate detection antibodies overnight at 4C, washed in PBST, incubated the IRdye conjugated secondary antibodies (LiCor) for 1 h at RT and imaged on the near-infrared scanner (LiCor Odyssey). Both primary and secondary antibody were diluted in Rockland fluorescent Western Blot blocking buffer. The immunoblot data quantitation was performed using the LiCor ImageStudio software.

[10] = design: method as in 3 sources, one per row (each row's own in cited_ref): ref 13 = [13]; PMID 9600986; doi:10.1073/pnas.95.11.6448; 13. Lambert MP , Diffusible, nonfibrillar ligands derived from Abeta1-42 are potent central nervous system neurotoxins . Proc Natl Acad Sci U S A 95 , 6448 – 6453 ( 1998 ). 9600986 10.1073/pnas.95.11. ||| ref 15 = [15]; PMID 26018073; doi:10.1074/jbc.M115.643577; 15. Kostylev MA , Prion-Protein-interacting Amyloid-beta Oligomers of High Molecular Weight Are Tightly Correlated with Memory Impairment in Multiple Alzheimer Mouse Models . J Biol Chem 290 , 17415 – ||| ref 14 = [14]; PMID 19216516; doi:10.1021/bi802046n; 14. Yu L , Structural characterization of a soluble amyloid beta-peptide oligomer . Biochemistry 48 , 1870 – 1877 ( 2009 ). 19216516 10.1021/bi802046n; conditions: cited from earlier work
IC16 antibody = test: IC16 capture ELISA; assay type: binding
Aß species = conditions: reported; cited from earlier work
Description: For this comparison, the PSCMA-released Aß pool prior to antibody affinity retention was compared to PSCMA-resistant material containing plaque-associated Aß. The PSCMA-resistant material was further extracted with sarkosyl, and the sarkosyl-insoluble pellet resuspended for immunoblot. The Aß ...

receptor-bound Aß = test: Lecanemab capture ELISA; assay type: binding, human; conditions: Lecanemab coated plate, D54D2 detection; Extended Data Fig. 1: 5 μg/mL coating, vs isotype control and no antibody wells

In the case of amyloid-ß [Aß], the “off-rate from PrP^C” value (PrP^C [1]) is listed as “slow off-rate with a half-life of days”.

For “receptor-bound Aß: PSCMA-released, IC16-immunopurified Aß filament pool from Alzheimer's disease brain”, the “maximal ThT fluorescence” value (Aß42 [2]; 20 nM monomer equivalent seeds, 5 μM Aß42, vs no seeds) was “reduced the maximal fluorescence achieved”, the “effect on Aß42 polymerization rate as seed” value (Aß42 [2]; 20 nM monomer equivalent, 5 μM Aß42, n=19 experiments, Brains A-D, vs no seeds) was “significantly slowed polymerization” and the “length (mean ± sd)” value ([3]; second of three AD brains) was 70±24.4 nm. For the same molecule, the “length (mean ± sd)” value ([3]; third of three AD brains) was 71±29.2 nm, the “filament length, overall” value [3] was “about 65 nm” and the “filament length, overall” value ([3]; listed as Receptor-bound amyloid-ß) was 65 nm. The “dendrite density (MAP2 area)” value ([4]; 160 pM Brain A, 80 pM Brain B, 16 pM Brain C, vs control brain fraction) was “does not change”, the “synaptic density (Synapsin1/Homer1b/c overlap at MAP2 dendrites)” value ([4]; 16-160 pM assembly (4-40 nM monomer equivalent), three AD brains vs control brain fraction) was “significantly reduced; also recorded: potently suppresses synapse density” and the “amount detected in APP/PS1, Prnp−/− mice (vs WT Prnp background)” value (Aß) was “Significantly lower amount”. For the same molecule, the “reduction of Aß released by PSCMA when PrP^C was absent” value (Aß) was “about 50%”, the “PrP^C binding, summary” value (PrP^C [5]) was “binds” and the “apparent avidity for PrP^C in PLISA” value (PrP^C [5]) was “binds PrP^C with the affinity similar to that for synthetic Aß oligomeric preps (F12)”. The “size by migration of globular proteins” value [6] was ~650 kDa, the “number of monomers per assembly” value [7] was “about 300” and the “distance of PrP^C-associated gold particles from filament tips” value (PrP^C [8]) was ≤ 5 nm. For the same molecule, the “length of filaments at completion of polymerization” value (Aß42 [9]; 5 μM Aß42, without seeds or with 20 nM seeds, negative stain EM) was 200-500 nm, the “filament length compared with other seeds / no seeds” value (Aß42 [9]; 4 different brains, 20 nM seeds, 5 μM Aß42) was “significantly shorter” and the “Aß40 reactivity, receptor-bound vs fibrillary pool” value (anti-Aß antibodies; carboxyl terminus, normalized to mid-region antibody) was “greater for Aß40 in the receptor-bound pool”. The “amino-terminal epitope immunoreactivity, receptor-bound vs sarkosyl-insoluble” value (anti-Aß antibodies) was “five-fold enriched”, the “amino-terminal epitope immunoreactivity, receptor-bound vs sarkosyl-insoluble” value (anti-Aß antibodies; listed as Receptor-bound Aß) was “significant increase in the immunoreactivity with antibodies directed against N-terminus of Aß” and the “pyroglutamylated Aß reactivity, receptor-bound vs insoluble fibrillary Aß” value (anti-Aß antibodies; normalized to mid-region antibody) was “present equally in both receptor-bound Aß and insoluble fibrillary Aß”.

For “Aß42 monomers: HFIP-monomerized synthetic Aß42”, the “apparent avidity for PrP^C in PLISA” value (PrP^C [5]) was “nil or at least two orders of magnitude lower”.

For cellular prion protein [PrP^C], the “effect on Aß42 amyloid filament formation” value (Aß42 [2]) was “inhibits Aß42 amyloid filament formation”, the “effect on rate of Aß42 polymerization seeded by fibrils” value (Aß42 [2]; pH 7.4) was “reduced the rate of Aß42 polymerization or Aß42 polymerization seeded by fibrils” and the “effect on rate of Aß42 polymerization, unseeded” value (Aß42 [2]; pH 7.4) was “reduced the rate of Aß42 polymerization”.

In the case of “amyloid-ß derived diffusible ligands [synthetic Aß42 ADDL]”, the “apparent MR” value ([10]; no reference at place) is listed as 500,000, the assembly size ([10]; synthetic Aß42 in F12 media, metastable spherical assemblies) is listed as 500 kDa and the “PrP^C binding, summary” value (PrP^C [5]) is listed as “binds”.

In the case of “Aß42 globulomer: Globulomers of Aß42 are prepared in SDS and then isolated as stable 12-mers”, the assembly state ([10]; prepared in SDS) is given as “stable 12-mers”, the “PrP^C binding, summary” value (PrP^C [5]) is given as “binds” and the “apparent avidity for PrP^C in PLISA” value (PrP^C [5]) is given as “similar”. For the same molecule, the “affinity/activity in IC16 capture ELISA” value (IC16 antibody) was “much higher activity”.

B1: Lecanemab: FDA approved anti-Aß antibody (antibody, chains of the INN, looked up, V domains shown)
VH: EVQLVESGGGLVQPGGSLRLSCSASGFTFSSFGMHWVRQAPGKGLEWVAYISSGSSTIYYGDTVKGRFTISRDNAKNSLFLQMSSLRAEDTAVYYCAREGGYYYGRSYYTMDYWGQGTTVTVSS
VL: DVVMTQSPLSLPVTPGAPASISCRSSQSIVHSNGNTYLEWYLQKPGQSPKLLIYKVSNRFSGVPDRFSGSGSGTDFTLRISRVEAEDVGIYYCFQGSHVPPTFGPGTKLEIK
For B1, the “binding preference among Aß species” value (Aß species) is given as “preferential affinity for oligomeric and protofibrillary Aß species, with less avidity for Aß filaments and minimal interaction with monomeric Aß” and the “affinity / reactivity for receptor-bound Aß” value (receptor-bound Aß) is given as “high affinity for the receptor-bound Aß species; also recorded: receptor-bound Aß is recognized by this antibody; also recorded: binds to ELISA plates coated with 5 μg/mL Lecanamab but not to wells coated with isotype control or to no antibody wells”.

Reference: paper doi:10.1101/2025.10.10.681740, “Distinct Filament Conformation for Receptor-Bound Amyloid-ß from Alzheimer’s Disease Brain” (bioRxiv, 2025)
